The record followed here is US10570141B2, “Substituted pyrrolopyrimidine CDK inhibitor, pharmaceutical composition containing same and use thereof” (CHIA TAI TIANQING PHARMACEUTICAL GROUP CO., LTD., priority 2016, dated 2020).

For orientation: IC50 means the concentration that gives 50% inhibition. Broadly, the AUC(0-inf) is total exposure, with the tail of the curve extrapolated. Read a high AUC(0-inf) as high exposure. The Cmax is the maximum level reached in the sampled fluid or tissue. By Tmax is commonly meant the time at which the peak concentration occurs. In general, half-life refers to the time needed for the level to fall by half in the phase considered. High values mean slow decline, low ones rapid decline.

Data set [1] has as its target CDK4/CyclinD3 (Homo sapiens (Human), UniProt P11802). Kind of data set: In vitro kinase activity inhibition assay of CDK4/CyclinD3 (LANCE method). In kind it is biochemical. The following applies: recombinant CDK4/CyclinD3 2 nM, ATP 200 μM, 1 h room temperature. The text has this:
(§1) A method for in vitro kinase activity inhibition assay of CDK4/CyclinD3 and CDK6/CyclinD3 is established as follows:
(§2) LANCE method of PerkinElmer Inc. was used in the assay, and recombinant CDK4/CyclinD3 (Item No.: 04-105) and CDK6/CyclinD3 (Item No.: 04-107) kinases were purchased from Cama Biosciences, Inc. Substrate ULight-MBP (Item No.: TRF0109) and Eu-labeled anti-MBP antibody (Item No.: TRF0201) were purchased from PerkinElmer. HEPES PH7.5 (Item No.: #15630080), DTT (Item No.: # D1532), MgCl2 (Item No.: # AM9530G), EGTA (Item No.: # E1219), and EDTA (Item No.: # AM9260G) were purchased from Life Technology. Firstly, a 1× buffer solution A (50 mM HEPES, PH 7.5, 10 mM MgCl2, 1 mM EGTA, 0.01% Tween 20 and 2 mM DTT) was prepared. A compound to be tested was dissolved in DMSO to 1 mM, serially diluted with DMSO, and then diluted 25-fold with the buffer solution A (final concentration of DMSO: 1%). CDK4/CyclinD3 and CDK6/CyclinD3 were diluted respectively with the buffer solution A. Finally, the buffer solution A was used to prepare the substrate and ATP. 4 μl of CDK4/CyclinD3 (final concentration: 2 nM) or CDK6/CyclinD3 (final concentration: 4 nM), 2 μl of the diluted compound, and 4 μl of a mixture of the substrate (final concentration: 50 nM) and ATP (final concentration: 200 μM) were added to reaction wells, and the resulting mixture was kept at room temperature to react for 1 h. Then, an EDTA solution was added to terminate the reaction, and Eu-labeled anti-MBP antibody was added and the resulting mixture was incubated at room temperature for additional 1 h. EnVision was used to read fluorescent signals (excitation wavelength: […], emission wavelength: […]).
(TR-FRET usually uses a lanthanide donor and a delayed reading to cut background.)

For data set [2], the target named is CDK6/CyclinD3 (Homo sapiens (Human), UniProt Q00534). The data set is described as follows: In vitro kinase activity inhibition assay of CDK6/CyclinD3 (LANCE method). In kind it is biochemical. The following applies: recombinant CDK6/CyclinD3 4 nM, ATP 200 μM, 1 h room temperature.
Sequence of CDK6/CyclinD3 (Q00534 whole entry): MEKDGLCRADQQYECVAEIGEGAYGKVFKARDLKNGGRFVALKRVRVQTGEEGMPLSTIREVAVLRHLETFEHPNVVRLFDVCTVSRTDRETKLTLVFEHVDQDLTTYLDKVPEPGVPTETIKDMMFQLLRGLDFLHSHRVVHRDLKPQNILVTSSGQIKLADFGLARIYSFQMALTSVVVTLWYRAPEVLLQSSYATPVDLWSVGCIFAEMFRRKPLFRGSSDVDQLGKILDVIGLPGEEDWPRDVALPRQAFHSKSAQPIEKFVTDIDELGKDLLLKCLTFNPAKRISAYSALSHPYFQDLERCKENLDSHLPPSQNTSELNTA
Sequence of CDK6/CyclinD3 (P30281 whole entry partner): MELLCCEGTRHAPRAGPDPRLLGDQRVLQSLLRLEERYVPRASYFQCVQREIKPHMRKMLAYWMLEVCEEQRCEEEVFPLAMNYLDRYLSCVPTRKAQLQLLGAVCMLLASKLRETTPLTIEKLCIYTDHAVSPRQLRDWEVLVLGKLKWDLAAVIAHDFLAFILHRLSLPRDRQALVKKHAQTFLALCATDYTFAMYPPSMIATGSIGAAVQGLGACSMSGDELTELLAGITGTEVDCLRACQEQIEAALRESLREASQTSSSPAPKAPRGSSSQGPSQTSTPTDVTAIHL
Text: as §1, §2

The test system of data set [3] is Colo-205 cells. Kind of data set: Inhibition of proliferation of colon cancer cell line Colo-205 (Cell-Titer Glo). In kind it is cell-based, human. The following applies: 72 hours incubation, cell viability, read-out: IC50(Colo205). The method, then:
(§3) Colo-205 (Crown Bioscience Inc.) and MCF7 (Beijing Jinzijing Biology Medicine Technology Co., Ltd.) cells were inoculated into a 96-well plate (Corning, Item No.: 3599) at a density of 1000 cells/well, and incubated overnight. A compound at different concentrations (10000 nM, 3000 nM, 1000 nM, 300 nM, 100 nM, 30 nM, 10 nM, 3 nM, 1 nM, 0.3 nM, 0 nM, final concentration of DMSO: 0.1%) was added on the next day, and the incubation was continued for additional 72 hours. The culture medium was sucked with a vacuum pump, 50 ul of Cell-Titer Glo reagent (Promega, Item No.: G7572) was added to each well, and shaken for 10 min. Chemiluminescent signals were collected by EnVision® Multilabel Reader (PerkinElmer Inc.) to detect the cell viability and calculate the half maximal inhibitory concentration of the compound for inhibiting cell proliferation.

For data set [4], the system named is MCF7 cells. The data set is described as follows: Inhibition of proliferation of breast cancer cell line MCF7 (Cell-Titer Glo). In kind it is cell-based, human. The following applies: 72 hours incubation, cell viability. How it is done: as §3
Data set [5] is described as follows: Pharmacokinetics evaluation in rats after intragastric administration. The following applies: male, rat, plasma, po, 5 mg/kg.
Experimental: (§4) 3 Healthy adult male rats were used for each tested compound. The tested compound was suspended in 20% sulfobutyl ether-β-cyclodextrin at a concentration of 1 mg/mL, and then was intragastrically administered at a single dose of 5 mg/kg (administered volume: 5 mL/kg). The animals to be intragastrically administered were fasted overnight prior to the experiment, i.e., fasted from 10 h prior to the administration to 4 h after the administration, and blood samples were collected in 0.25, 0.5, 1, 2, 4, 6, 8 and 24 h after the intragastric administration. About 0.3 mL of whole blood was collected from the orbital venous plexus, and put in a heparin anticoagulant tube. The sample was centrifuged at 4° C. at 4000 rpm for 5 min. The plasma was transferred to a centrifuge tube, and kept at −80° C. until analysis. Concentration of the tested compound in the plasma sample was analyzed using non-validated liquid chromatography-tandem mass spectrometry (LC-MS/MS). Plasma concentration-time data of individual animals were analyzed using WinNonlin (Professional Edition, Version 6.3; Pharsight Corporation) software. A non-compartment model was used for concentration analysis.
The conditions of data set [6]: rat, in vivo, po, 5 mg/kg.
Experimental: as §4

Where a name gives a salt, the structure may show the parent alone. Read-outs that look alike come from different tables or passages of the source.

Sequence of CDK4/CyclinD3 (P11802 whole entry): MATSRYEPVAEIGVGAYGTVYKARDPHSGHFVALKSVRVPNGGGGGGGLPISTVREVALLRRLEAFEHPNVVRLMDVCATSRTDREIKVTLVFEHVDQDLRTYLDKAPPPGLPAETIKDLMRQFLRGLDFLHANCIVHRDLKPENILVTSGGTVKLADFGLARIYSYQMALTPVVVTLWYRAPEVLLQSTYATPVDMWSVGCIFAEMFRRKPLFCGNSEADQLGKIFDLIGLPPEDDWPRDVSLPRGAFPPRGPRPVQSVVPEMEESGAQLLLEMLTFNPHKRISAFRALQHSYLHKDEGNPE
Sequence of CDK4/CyclinD3 (P30281 whole entry partner): as the sequence (P30281 whole entry partner) above

For the compound `CS(=O)(=O)c1cc2cnc(Nc3ccc(C4=CCNCC4)cn3)nc2n1C1CCCC1.Cl` [Example 4, 7-cyclopentyl-6-methylsulfonyl-N-(5-(1,2,3,6-4H-pyridin-4-yl)pyridin-2-yl)-7H-pyrrolo[2,3-d]pyrimidin-2-amine hydrochloride], the IC50 in data set [1] is 2.57 nM; in data set [2], 11.1 nM; in data set [3] (Homo sapiens) it was 312 nM; in data set [4] (Homo sapiens), 175 nM. In data set [5], this compound returned an AUC(0-inf) of 889 ng·h/mL. Further, in data set [5], the Cmax is 90 ng/mL. Besides, in data set [5], the Tmax came out at 3 h. Also, the half-life in data set [5] was 3.28 h.
`CCS(=O)(=O)c1cc2cnc(Nc3ccc(N4CCNCC4)cn3)nc2n1C1CCCC1` [Example 2, 7-cyclopentyl-6-ethylsulfonyl-N-(5-(piperazin-1-yl)pyridin-2-yl)-7H-pyrrolo[2,3-d]pyrimidin-2-amine hydrochloride]: the IC50 in data set [1] was found to be 2.12 nM; in data set [2], 21 nM.
For the compound `CN(C)C(=O)c1cc2cnc(Nc3ccc(C4=CCNCC4)cn3)nc2n1C1CCCC1.Cl` [Example 6, 7-cyclopentyl-6-N,N-dimethylcarbamoyl-N-(5-(1,2,3,6-4H-pyridin-4-yl)pyridin-2-yl)-7H-pyrrolo[2,3-d]pyrimidin-2-amine hydrochloride], the IC50 in data set [1] stood at 2.37 nM. Besides, the IC50 in data set [2] was found to be 30.6 nM. Also, the IC50 in data set [3] (Homo sapiens) amounted to 1260 nM. The IC50 in data set [4] (Homo sapiens) worked out at 333 nM. Moreover, in data set [5], the AUC(0-inf) was determined as 627 ng·h/mL, the Cmax was 74.3 ng/mL, the Tmax was determined as 3.33 h and the half-life was 3.76 h.
On to `CN(C)C(=O)c1cc2cnc(Nc3ccc(N4CCNCC4)cn3)nc2n1C1CCCC1.Cl` [Comparative Example 1, 7-cyclopentyl-2-(5-(piperazin-1-yl-pyridin-2-ylamino)-7H-pyrrolo[2,3-d]pyrimidine-6-carboxylic acid dimethylamide (ribociclib) hydrochloride], for which the IC50 in data set [3] turned out to be 2690 nM; in data set [4] it was 326 nM.
For the compound `CS(=O)(=O)c1cc2cnc(Nc3ccc(N4CCNCC4)cn3)nc2n1C1CCCC1` [Example 1, 7-cyclopentyl-6-methylsulfonyl-N-(5-(piperazin-1-yl)pyridin-2-yl)-7H-pyrrolo[2,3-d]pyrimidin-2-amine hydrochloride], the IC50 in data set [1] amounted to 0.8 nM. Further, the IC50 in data set [2] was found to be 5.7 nM. In addition, the IC50 in data set [3] (Homo sapiens) came out at 271 nM. Also, the IC50 in data set [4] (Homo sapiens) was found to be 114 nM. In data set [5], the AUC(0-inf) is 1960 ng·h/mL, the highest level (Cmax) was 255 ng/mL, the Tmax came to 1.33 h and the half-life was 7.23 h.
Turning to `CN(C)C1CCN(c2ccc(Nc3ncc4cc(S(C)(=O)=O)n(C5CCCC5)c4n3)nc2)CC1` [Example 3, 7-cyclopentyl-6-methylsulfonyl-N-(5-(4-(dimethylamino)piperidin-1-yl)pyridin-2-yl)-7H-pyrrolo[2,3-d]pyrimidin-2-amine hydrochloride], the IC50 in data set [1] came out at 3.4 nM; in data set [2], 18.7 nM.
For `CS(=O)(=O)c1cc2cnc(Nc3ccc(C4CCNCC4)cn3)nc2n1C1CCCC1` [Example 5, 7-cyclopentyl-6-methylsulfonyl-N-(5-(piperidin-4-yl)pyridin-2-yl)-7H-pyrrolo[2,3-d]pyrimidin-2-amine hydrochloride], the values for the IC50 in data set [1], in data set [2] and in data set [3] (Homo sapiens) were 1.46 nM, 9.85 nM and 470 nM, respectively.
With `CN(C)C(=O)c1cc2cnc(Nc3ccc(N4CCNCC4)cn3)nc2n1C1CCCC1.Cl` [Comparative Example 1], in data set [6], the total exposure AUC(0-inf) was 120 ng·h/mL, the Cmax came out at 15.8 ng/mL, the T1/2 amounted to 4.25 h and the time to peak (Tmax) came to 2.67 h.
